The term IC50 denotes the midpoint of a concentration-inhibition curve.

28 compounds from patent US8124764B2, “Fused heterocyclyc inhibitor compounds” (Gilead Sciences, Inc., priority 2008, dated 2012) can be followed below.

In one test the target is HDAC 1 (Homo sapiens, UniProt Q13547). Nature of the test: HDAC 1 inhibition assay with about 3 hours enzyme/compound preincubation (fluorophore/quencher peptide substrate). It counts as biochemical. Conditions: 3-hour preincubation of enzyme with compound; read-out: HDAC 1 inhibitory activity (IC50 [μM]) (3-hour preincubation). The protocol: HDAC inhibitory activity of the compound of Example 1 was measured by two types of assays in which HDAC 1 was used as a target molecule. The first assay was carried out without preincubation after addition of the enzyme. The test compound was suspended in and titrated in dmso. It was then spotted into a 384-well test plate. The enzyme, HDAC 1, was diluted in assay buffer containing 25 mM Tris-HCl (pH 8.0), 137 mM NaCl, 2.7 mM KCl, and 0.01% Tween-20 and added to the pre-spotted compound. The peptide substrate containing a fluorophore/quencher pair was diluted in the same assay buffer and added to the compound/enzyme mix initiating the reaction. The reaction incubated at room temperature for about 45 minutes. A concentrated developer solution was diluted in the assay buffer, and added to the reaction. The reaction was incubated at room temperature for about 15 minutes and relative fluorescence was read on an instrument reader.
HDAC 1, sequence (Q13547 whole entry, species assumed): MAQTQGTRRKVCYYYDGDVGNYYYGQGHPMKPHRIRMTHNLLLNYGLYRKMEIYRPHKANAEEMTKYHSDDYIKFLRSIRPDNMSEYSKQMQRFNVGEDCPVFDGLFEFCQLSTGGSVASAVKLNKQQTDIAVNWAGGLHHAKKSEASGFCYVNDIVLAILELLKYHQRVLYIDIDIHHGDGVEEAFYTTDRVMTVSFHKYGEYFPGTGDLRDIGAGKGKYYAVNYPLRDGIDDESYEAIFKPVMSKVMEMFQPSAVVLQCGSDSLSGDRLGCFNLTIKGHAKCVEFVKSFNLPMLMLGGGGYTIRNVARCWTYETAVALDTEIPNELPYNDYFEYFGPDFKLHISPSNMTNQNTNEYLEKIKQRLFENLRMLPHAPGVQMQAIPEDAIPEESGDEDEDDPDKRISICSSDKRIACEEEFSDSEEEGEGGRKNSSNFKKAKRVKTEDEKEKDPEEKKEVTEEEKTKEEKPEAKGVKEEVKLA
The second assay is similar to the first assay described above, except that preincubation is carried out for about 3 hours after the enzyme is introduced. The test compound was suspended in, and titrated in DMSO. It was then spotted into a 384-well test plate. The enzyme, HDAC 1, was diluted in the same assay buffer as used in the previous assay and added to the pre-spotted compound. The enzyme/compound mix was incubated at room temperature for about 3 hours. The peptide substrate containing a fluorophore/quencher pair was diluted in the assay buffer and added to the compound/enzyme mix initiating the reaction. The reaction incubated at room temperature for 45 minutes. A concentrated developer solution was diluted in the assay buffer, and added to the reaction. The reaction was incubated at room temperature for about 15 minutes and relative fluorescence was read on an instrument reader.

The target of a further test is CDK2 (Homo sapiens, UniProt P24941). Nature of the test: CDK2 inhibition. It counts as biochemical.

In the case of `Cc1nc2ccc(Br)cn2c1-c1ccnc(Nc2ccc(C(=O)Nc3ccccc3N)cc2)n1` [Example 47, N-(2-Amino-phenyl)-4-[4-(6-bromo-2-methyl-imidazo[1,2-a]pyridin-3-yl)-pyrimidin-2-ylamino]-benzamide], the IC50 was over 10 µM at HDAC 1 and 0.14 µM on CDK2.

Turning to `Cc1nc2ccccn2c1-c1ccnc(Nc2ccc(C(=O)Nc3ccccc3N)cn2)c1` [Example 70, N-(2-aminophenyl)-6-(4-(2-methylimidazo[1,2-a]pyridin-3-yl)pyridin-2-ylamino)nicotinamide], the IC50 on HDAC 1 is 0.073 µM; at CDK2 it was 0.87 µM.

Consider `Cc1nc2ccccn2c1-c1ccnc(Nc2nc(C(=O)NO)cs2)n1` [Example 61, N-hydroxy-2-(4-(2-methylimidazo[1,2-a]pyridin-3-yl)pyrimidin-2-ylamino)thiazole-4-carboxamide], for which the IC50 on HDAC 1 was determined as 1.8 µM; at CDK2 it was 0.56 µM.

Take `Cc1nc2ccccn2c1-c1ccnc(Nc2ccc(C(=O)NO)cc2)n1` [Example 1, N-Hydroxy-4-(4-(2-methylimidazo[1,2-a]pyridin-3-yl)-pyrimidin-2-ylamino)-benzamide]: the IC50 on HDAC 1 is 0.067 µM; against CDK2, 0.044 µM.

With `Cc1nc2ccccn2c1-c1ccnc(Nc2ccc(C(=O)Nc3ccccc3N)cc2F)n1` [Example 34, N-(2-Amino-phenyl)-3-fluoro-4-[4-(2-methyl-imidazo[1,2-a]pyridin-3-yl)-pyrimidin-2-ylamino]-benzamide], the values for the IC50 at HDAC 1 and on CDK2 were 1.56 µM and 0.86 µM, respectively.

Consider `Cc1nc2ccc(C(=O)NCCN3CCOCC3)cn2c1-c1ccnc(Nc2ccc(C(=O)Nc3ccccc3N)cc2)n1` [Example 40, 3-(2-(4-(2-aminophenylcarbamoyl)phenylamino)pyrimidin-4-yl)-2-methyl-N-(2-morpholinoethyl)imidazo[1,2-a]pyridine-6-carboxamide], for which the results for the IC50 at HDAC 1 and on CDK2 were 0.347 µM and 7.1 µM, respectively.

Consider `Cc1nc2ccccn2c1-c1ccnc(Nc2ncc(C(=O)NO)s2)c1` [Example 73, N-hydroxy-2-(4-(2-methylimidazo[1,2-a]pyridin-3-yl)pyridin-2-ylamino)thiazole-5-carboxamide], for which the IC50 on HDAC 1 was found to be 0.185 µM; at CDK2, 1.68 µM.

Consider `O=C(NO)c1ccc(Nc2ncc(F)c(-c3cnc4ccccn34)n2)cc1` [Example 51, 4-(5-Fluoro-4-imidazo[1,2-a]pyridin-3-yl-pyrimidin-2-ylamino)-N-hydroxy-benzamide], for which the IC50 at HDAC 1 is 0.211 µM; on CDK2, 0.014 µM.

Turning to `Cc1nc2ccccn2c1-c1ccnc(Nc2ccc(C(=O)NO)cn2)n1` [Example 64, N-hydroxy-6-(4-(2-methylimidazo[1,2-a]pyridin-3-yl)pyrimidin-2-ylamino)nicotinamide], the figures for the IC50 on HDAC 1 and against CDK2 were 0.094 µM and 0.52 µM, respectively.

On to `Cc1nc2ccccn2c1-c1ccnc(Nc2cc(C(=O)NO)cs2)n1` [Example 60, N-hydroxy-5-(4-(2-methylimidazo[1,2-a]pyridin-3-yl)pyrimidin-2-ylamino)thiophene-3-carboxamide], for which the IC50 on HDAC 1 was found to be 0.164 µM; against CDK2, 0.03 µM.

In the case of `COC(=O)c1ccn2c(-c3ccnc(Nc4ccc(C(=O)Nc5ccccc5N)cc4)n3)c(C)nc2c1` [Example 26, Methyl 3-(2-(4-(2-aminophenylcarbamoyl)phenylamino)pyrimidin-4-yl)-2-methylimidazo[1,2-a]pyridine-7-carboxylate], the IC50 was over 10 µM on HDAC 1 and 0.53 µM against CDK2.

Take `COCCOc1ccn2c(-c3ccnc(Nc4ccc(C(=O)Nc5ccccc5N)cc4)n3)c(C)nc2c1` [Example 31, N-(2-Amino-phenyl)-4-{4-[7-(2-methoxy-ethoxy)-2-methyl-imidazo[1,2-a]pyridin-3-yl]-pyrimidin-2-ylamino}-benzamide]: the IC50 at HDAC 1 is 0.243 µM; against CDK2, 0.4 µM.

For the compound `Cc1nc2ccccn2c1-c1ccnc(Nc2ncc(C(=O)Nc3ccccc3N)s2)n1` [Example 63, N-(2-aminophenyl)-2-(4-(2-methylimidazo[1,2-a]pyridin-3-yl)pyrimidin-2-ylamino)thiazole-5-carboxamide], the IC50 stood at 0.224 µM on HDAC 1 and 3.53 µM at CDK2.

Consider `COc1ccn2c(-c3ccnc(Nc4ccc(C(=O)NO)cc4)n3)c(C(F)(F)F)nc2c1` [Example 49, N-Hydroxy-4-[4-(7-methoxy-2-trifluoromethyl-imidazo[1,2-a]pyridin-3-yl)-pyrimidin-2-ylamino]-benzamide], for which the IC50 at HDAC 1 was found to be 0.199 µM; against CDK2, 0.06 µM.

In the case of `O=C(NO)c1cccc(Nc2nccc(-c3cnc4ccccn34)n2)c1` [Example 7, N-Hydroxy-3-(4-imidazo[1,2-a]pyridin-3-yl-pyrimidin-2-ylamino)-benzamide], the figures for the IC50 on HDAC 1 and at CDK2 were 0.017 µM and 0.069 µM, respectively.

For `Cc1nc2cccnn2c1-c1ccnc(Nc2ccc(C(=O)NO)cc2)n1` [Example 17, N-Hydroxy-4-[4-(2-methyl-imidazo[1,2-b]pyridazin-3-yl)-pyrimidin-2-ylamino]-benzamide], the values for the IC50 on HDAC 1 and on CDK2 were 0.273 µM and 0.034 µM, respectively.

`Cc1nc2cnccn2c1-c1ccnc(Nc2ccc(C(=O)NO)cc2)n1` [Example 19, N-Hydroxy-4-[4-(2-methyl-imidazo[1,2-a]pyrazin-3-yl)-pyrimidin-2-ylamino]-benzamide]: the results for the IC50 on HDAC 1 and on CDK2 were 0.0937 µM and 0.07 µM, respectively.

With “N-hydroxy-2-(4-(2-methylimidazo[1,2-a]pyridin-3-yl)pyrimidin-2-ylamino)oxazole-5-carboxamide [Example 72]”, the IC50 is 0.4 µM on HDAC 1 and over 40 µM on CDK2.

Take `Cc1nc2cc(C(=O)N3CCN(C)CC3)ccn2c1-c1ccnc(Nc2ccc(C(=O)Nc3ccccc3N)cc2)n1` [Example 27, N-(2-Amino-phenyl)-4-{4-[2-methyl-7-(4-methyl-piperazine-1-carbonyl)-imidazo[1,2-a]pyridin-3-yl]-pyrimidin-2-ylamino}-benzamide]: the IC50 was determined as 0.374 µM on HDAC 1 and 4.64 µM at CDK2.

As for `Cc1nc2cc(NCCN(C)C)ccn2c1-c1ccnc(Nc2ccc(C(=O)Nc3ccccc3N)cc2)n1` [Example 32, N-(2-Amino-phenyl)-4-{4-[7-(2-dimethylamino-ethylamino)-2-methyl-imidazo[1,2-a]pyridin-3-yl]-pyrimidin-2-ylamino}-benzamide], the values for the IC50 at HDAC 1 and at CDK2 were 0.141 µM and 2.58 µM, respectively.

In the case of `Cc1nc2ncccn2c1-c1ccnc(Nc2ccc(C(=O)Nc3ccccc3N)cc2)n1` [Example 22, N-(2-Amino-phenyl)-4-[4-(2-methyl-imidazo[1,2-a]pyrimidin-3-yl)-pyrimidin-2-ylamino]-benzamide], the IC50 on HDAC 1 turned out to be 0.071 µM; at CDK2, 2.87 µM.

For `Cc1nc2ccccn2c1-c1ccnc(Nc2ccc(C(=O)NO)cn2)c1` [Example 69, N-hydroxy-6-(4-(2-methylimidazo[1,2-a]pyridin-3-yl)pyridin-2-ylamino)nicotinamide], the IC50 at HDAC 1 stood at 0.141 µM; at CDK2, 0.15 µM.

On to `Cc1nc2cc(C#N)ccn2c1-c1ccnc(Nc2ccc(C(=O)Nc3ccccc3N)cc2)n1` [Example 24, N-(2-Amino-phenyl)-4-[4-(7-cyano-2-methyl-imidazo[1,2-a]pyridin-3-yl)-pyrimidin-2-ylamino]-benzamide], for which the figures for the IC50 on HDAC 1 and on CDK2 were 0.18 µM and 0.5 µM, respectively.

Regarding `Cc1nc2ccccn2c1-c1ccnc(Nc2csc(C(=O)NO)c2)n1` [Example 71, N-hydroxy-4-(4-(2-methylimidazo[1,2-a]pyridin-3-yl)pyrimidin-2-ylamino)thiophene-2-carboxamide], the IC50 at HDAC 1 was 0.185 µM; against CDK2, 0.026 µM.

Regarding `Cc1nc2ccccn2c1-c1ccnc(Nc2ccc(C(=O)Nc3ccccc3N)cc2)n1` [Example 2, N-(2-Amino-phenyl)-4-(4-(2-methylimidazo[1,2-a]pyridin-3-yl)-pyrimidin-2-ylamino)-benzamide], the IC50 on HDAC 1 stood at 0.146 µM; at CDK2, 0.134 µM.

Turning to `Cc1nc2cccnn2c1-c1ccnc(Nc2ccc(C(=O)Nc3ccccc3N)cc2)n1` [Example 18, N-(2-Amino-phenyl)-4-[4-(2-methyl-imidazo[1,2-b]pyridazin-3-yl)-pyrimidin-2-ylamino]-benzamide], the IC50 is 0.0239 µM at HDAC 1 and 0.59 µM at CDK2.

For the compound `O=C(NO)c1ccc(N(CC(F)(F)F)c2nccc(-c3cnc4ccccn34)n2)cc1` [Example 57, N-Hydroxy-4-[(4-imidazo[1,2-a]pyridin-3-yl-pyrimidin-2-yl)-(2,2,2-trifluoro-ethyl)-amino]-benzamide], the IC50 at HDAC 1 turned out to be 0.147 µM; at CDK2, 2.87 µM.

`COCCOc1ccc2nc(C)c(-c3ccnc(Nc4ccc(C(=O)Nc5ccccc5N)cc4)n3)n2c1` [Example 41, N-(2-Amino-phenyl)-4-{4-[6-(2-methoxy-ethoxy)-2-methyl-imidazo[1,2-a]pyridin-3-yl]-pyrimidin-2-ylamino}-benzamide]: the values for the IC50 on HDAC 1 and at CDK2 were 0.877 µM and 4.34 µM, respectively.
